Test results as given in PMC11593623, “D299T Mutation in CYP76F14 Led to a Decrease in Wine Bouquet Precursor Production in Wine Grape” (Genes, 2024).

Molecular target: T1, 'L35' VvCYP76F14 (Vitis vinifera, UniProt A0A1B2ZBX8, S46N/I107T/K111N/Q175R/V222L/N286S/T325K/G378E/A380T/D383E/A386T)
T1 construct: 499-residue CDS, synthesized (GenScript), E. coli BL21(DE3); purification and tags not described; Arabidopsis CPR ATR1 as redox partner
Assay: substrate remnant by UPLC-MS
Assay type: cell-based
Settings: Arabidopsis CPR ATR1 as redox partner; 26 °C, 1 h; recombinant E. coli protein, purification not described

T1 sequence (A0A1B2ZBX8 entry or part of it with the stated changes): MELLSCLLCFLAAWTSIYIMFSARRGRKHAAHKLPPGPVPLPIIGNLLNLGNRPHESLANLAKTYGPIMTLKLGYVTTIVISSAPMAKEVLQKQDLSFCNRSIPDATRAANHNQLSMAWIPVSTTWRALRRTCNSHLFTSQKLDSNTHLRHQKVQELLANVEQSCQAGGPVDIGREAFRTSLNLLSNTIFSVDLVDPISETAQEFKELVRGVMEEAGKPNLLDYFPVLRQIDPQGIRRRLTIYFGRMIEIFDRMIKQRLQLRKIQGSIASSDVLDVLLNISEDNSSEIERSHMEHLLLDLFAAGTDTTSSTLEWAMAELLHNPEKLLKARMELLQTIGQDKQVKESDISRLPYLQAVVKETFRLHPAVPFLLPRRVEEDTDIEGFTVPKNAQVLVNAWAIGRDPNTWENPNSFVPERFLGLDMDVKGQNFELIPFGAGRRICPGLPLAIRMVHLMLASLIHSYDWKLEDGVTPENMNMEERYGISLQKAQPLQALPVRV

Structure (SMILES)	substrate remnant by UPLC-MS
C=CC(C)(O)CCC=C(C)C (centres unmarked) [linalool]	‘L35’ VvCYP76F14 exhibited lower remnants of linalool and (E)-8-hydroxylinalool substrates
C=CC(C)(O)CC/C=C(\C)CO (centres unmarked) [(E)-8-hydroxylinalool]	‘L35’ VvCYP76F14 exhibited lower remnants of linalool and (E)-8-hydroxylinalool substrates
